Here are results for 14 molecules from US20240383954A1, “PEPTIDE INHIBITORS OF INTERLEUKIN-23 RECEPTOR AND THEIR USE TO TREAT INFLAMMATORY DISEASES” (Janssen Biotech, Inc., priority 2020, published 2024).

Starred links: 1 amine or outer side, 2 acyl side, 3 side chain; linkers in the order of their positions; H or OH if unused. Positions of bridges follow the written chain, without caps; N, C: chain ends. Non-standard residues stand in square brackets, D forms with d. Residues, ends and D or L forms follow the SMILES beside them. *: point of attachment. Trp(7-Me) = Cc1cccc2c(C[C@H](N)C(=O)O)c[nH]c12; Abu(4-yl) = O=C([C@H](CC[*:3])N[*:1])[*:2]; Ac6c(4,4-F2) = NC1(C(=O)O)CCC(F)(F)CC1; 2Nal = N[C@@H](Cc1ccc2ccccc2c1)C(=O)O; AEF = NCCOc1ccc(C[C@H](N)C(=O)O)cc1; αMeF = C[C@](N)(Cc1ccccc1)C(=O)O; αMeE = C[C@](N)(CCC(=O)O)C(=O)O; Pen = CC(C)(S)[C@H](N)C(=O)O; αMeK = C[C@](N)(CCCCN)C(=O)O; Ac5c = NC1(C(=O)O)CCCC1; Thp = NC1(C(=O)O)CCOCC1; Ac3c = NC1(C(=O)O)CC1; Aib = CC(C)(N)C(=O)O; Propionyl = CCC(=O)*
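Further: cryopreserved PBMCs stimulated at 37 °C in 5% CO2, then lysed, with phosphorylated STAT3 quantified in lysates using a phospho-STAT panel kit.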

IL-23R, sequence (Q5VWK5 24-629): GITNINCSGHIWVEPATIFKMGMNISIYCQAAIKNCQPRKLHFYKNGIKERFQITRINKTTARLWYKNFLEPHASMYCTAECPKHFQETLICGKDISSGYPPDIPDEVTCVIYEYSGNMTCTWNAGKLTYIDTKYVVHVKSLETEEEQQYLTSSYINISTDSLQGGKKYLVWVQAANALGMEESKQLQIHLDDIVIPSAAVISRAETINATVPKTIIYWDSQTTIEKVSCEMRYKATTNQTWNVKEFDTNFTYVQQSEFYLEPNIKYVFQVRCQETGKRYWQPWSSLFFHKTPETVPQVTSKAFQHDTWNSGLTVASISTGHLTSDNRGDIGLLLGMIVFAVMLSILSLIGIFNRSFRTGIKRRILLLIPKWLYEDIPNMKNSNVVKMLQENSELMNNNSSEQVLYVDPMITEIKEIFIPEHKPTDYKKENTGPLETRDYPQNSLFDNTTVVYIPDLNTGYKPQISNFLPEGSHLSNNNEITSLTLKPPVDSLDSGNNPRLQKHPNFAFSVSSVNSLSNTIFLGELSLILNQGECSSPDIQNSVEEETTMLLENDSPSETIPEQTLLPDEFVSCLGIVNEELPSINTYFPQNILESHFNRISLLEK

The experiment addresses IL-23R (Homo sapiens, UniProt Q5VWK5). Description: cell-based. To be noted: PBMC pSTAT3 IC50 (nM), PBMCs from healthy donors, IL-23 5 ng/mL, 30 minutes, phosphorylated STAT3.
In the case of `CC(=O)NCCCC[C@@H]1NC(=O)[C@H](Cc2c[nH]c3c(C)cccc23)NC(=O)[C@H]([C@@H](C)O)NC(=O)[C@H](CC(N)=O)NC(=O)[C@@H](NC(C)=O)C(C)(C)SSC(C)(C)[C@@H](C(=O)N[C@@H](Cc2ccc(OCCN)cc2)C(=O)N[C@@H](Cc2ccc3ccccc3c2)C(=O)N[C@@](C)(CCCCN)C(=O)N[C@@H](CCCCNC(C)=O)C(=O)N[C@@H](CC(N)=O)C(=O)N[C@H](C(N)=O)[C@H](C)c2ccccc2)NC1=O` [Compound 312, MeCO-Pen-N-T-7MeTrp-K(Ac)-Pen-AEF-2Nal-aMeK-K(Ac)-N-bMePhe(S,R)-CONH2], it took 90 nM to reach half-maximal inhibition (IC50).
The result for `CC(=O)NCCCC[C@@H]1NC(=O)[C@H](Cc2c[nH]c3c(C)cccc23)NC(=O)[C@H]([C@@H](C)O)NC(=O)[C@H](CC(N)=O)NC(=O)[C@@H](NC(C)=O)C(C)(C)SSC(C)(C)[C@@H](C(=O)N[C@@H](Cc2ccc(OCCN)cc2)C(=O)N[C@@H](Cc2ccc3ccccc3c2)C(=O)N[C@@](C)(CCCCN)C(=O)N[C@@H](CCCCNC(C)=O)C(=O)N[C@@H](CC(N)=O)C(=O)NC2(C(=O)N[C@H](Cc3ccc(O)cc3)C(N)=O)CCOCC2)NC1=O` [Compound 107, Ac-[Pen]-N-T-[W(7-Me)]-[Lys(Ac)]-[Pen]-Phe[4-(2-aminoethoxy)]-[2-Nal]-[a-MeLys]-[Lys(Ac)]-N-[THP]-[(D)Tyr]-NH2] reads 11 nM; that for `CC(=O)N[C@H](CCCNC(=N)N)C(=O)N[C@H]1CCSC[C@@H](C(=O)N[C@@H](Cc2ccc(OCCN)cc2)C(=O)N[C@@H](Cc2ccc3ccccc3c2)C(=O)NC2(C(=O)NC(C)(C)C(=O)N[C@@H](CC(N)=O)C(=O)N[C@@H](Cc3ccccc3)C(N)=O)CCOCC2)NC(=O)[C@H](CCC(N)=O)NC(=O)[C@H](Cc2c[nH]c3ccccc23)NC(=O)[C@H]([C@@H](C)O)NC(=O)[C@H](CCC(N)=O)NC1=O` [Compound 49, Ac-[(D)Arg]-[Abu]-Q-T-W-Q-[Cys]-Phe[4-(2-aminoethoxy)]-[2-Nal]-[THP]-[Aib]-N-F-NH2] (Ac-[dR][Abu(4-yl)]QTWQC[AEF][2Nal][Thp][Aib]NF-NH2; thioether 2-7), 18 nM; that for `CCC(=O)NCCCC[C@H](NC(=O)C1(NC(=O)[C@H](Cc2ccc3ccccc3c2)NC(=O)[C@H](Cc2ccc(OCCN)cc2)NC(=O)[C@H]2NC(=O)[C@H](CCC(N)=O)NC(=O)[C@H](Cc3c[nH]c4ccccc34)NC(=O)[C@H]([C@@H](C)O)NC(=O)[C@H](CCC(N)=O)NC(=O)[C@@H](NC(=O)[C@@H](CCCNC(=N)N)NC(C)=O)C(C)(C)SSC2(C)C)CCOCC1)C(=O)N[C@@H](CC(N)=O)C(=O)N[C@@H](Cc1ccccc1)C(N)=O` [Compound 54, Ac-[(D)Arg]-[Pen]-Q-T-W-Q-[Pen]-Phe[4-(2-aminoethoxy)]-[2-Nal]-[THP]-[Lys(COEt)]-N-F-NH2] (Ac-[dR][Pen]QTWQ[Pen][AEF][2Nal][Thp]K(Propionyl)NF-NH2; disulfide 2-7), 47 nM.
Molecule `CC(=O)NCCCC[C@@H]1NC(=O)[C@H](Cc2c[nH]c3c(C)cccc23)NC(=O)[C@H]([C@@H](C)O)NC(=O)[C@H](CC(N)=O)NC(=O)[C@@H](NC(=O)[C@@H](CCCNC(=N)N)NC(C)=O)C(C)(C)SSC(C)(C)[C@@H](C(=O)N[C@@H](Cc2ccc(OCCNC(C)=O)cc2)C(=O)N[C@@H](Cc2ccc3ccccc3c2)C(=O)NC2(C(=O)N[C@@H](CCC(=O)O)C(=O)N[C@@H](CC(N)=O)C(=O)NC3(C(N)=O)CCOCC3)CC2)NC1=O` [Compound 308, MeCO-r-Pen-N-T-7MeW-K(Ac)-Pen-AEF(Ac)-2Nal-Acpx-E-N-THP-CONH2] (Ac-[dR][Pen]NT[Trp(7-Me)]K(Ac)[Pen][AEF](Ac)[2Nal][Ac3c]EN[Thp]-NH2; disulfide 2-7) came in with an IC50 of 8 nM.
The same measure for `CC(=O)NCCCC[C@H](NC(=O)[C@](C)(CCCCN)NC(=O)[C@H](Cc1ccc2ccccc2c1)NC(=O)[C@H](Cc1ccc(OCCN)cc1)NC(=O)[C@H]1NC(=O)[C@H](CCC(N)=O)NC(=O)[C@H](Cc2c[nH]c3c(C)cccc23)NC(=O)[C@H]([C@@H](C)O)NC(=O)[C@H](CC(N)=O)NC(=O)[C@@H](NC(C)=O)C(C)(C)SSC1(C)C)C(=O)N[C@@H](CC(N)=O)C(=O)NC1(C(N)=O)CCOCC1` [Compound 87, Ac-[Pen]-N-T-[W(7-Me)]-Q-[Pen]-Phe[4-(2-aminoethoxy)]-[2-Nal]-[a-MeLys]-[Lys(Ac)]-N-[THP]-NH2]: 3.6 nM; for `CC(=O)NCCCC[C@@H]1NC(=O)[C@H](Cc2c[nH]c3ccccc23)NC(=O)[C@H]([C@@H](C)O)NC(=O)[C@H](CC(N)=O)NC(=O)[C@@H](NC(=O)[C@@H](CCCNC(=N)N)NC(C)=O)C(C)(C)SSC(C)(C)[C@@H](C(=O)N[C@@H](Cc2ccc(OCCN)cc2)C(=O)N[C@@H](Cc2ccc3ccccc3c2)C(=O)NC2(C(=O)N[C@@H](CCC(=O)O)C(=O)N[C@@H](CC(N)=O)C(=O)NC3(C(N)=O)CCOCC3)CCCC2)NC1=O` [Compound 88, Ac-[(D)Arg]-[Pen]-N-T-W-[Lys(Ac)]-[Pen]-Phe[4-(2-aminoethoxy)]-[2-Nal]-[Acvc]-E-N-[THP]-NH2] (Ac-[dR][Pen]NTWK(Ac)[Pen][AEF][2Nal][Ac5c]EN[Thp]-NH2; disulfide 2-7): 3.7 nM; for `CC(=O)NCCCC[C@@H]1NC(=O)[C@H](Cc2c[nH]c3c(C)cccc23)NC(=O)[C@H]([C@@H](C)O)NC(=O)[C@H](CC(N)=O)NC(=O)[C@@H](NC(=O)[C@@H](CCCNC(=N)N)NC(C)=O)C(C)(C)SSC(C)(C)[C@@H](C(=O)N[C@@H](Cc2ccc(OCCN)cc2)C(=O)N[C@@H](Cc2ccc3ccccc3c2)C(=O)NC2(C(=O)N[C@@H](CCC(=O)O)C(=O)N[C@@H](CC(N)=O)C(=O)NC3(C(N)=O)CCOCC3)CCC(F)(F)CC2)NC1=O` [Compound 303, MeCO-r-Pen-N-T-7MeW-K(Ac)-Pen-AEF-2Nal-4diFAchx-E-N-THP--CONH2] (Ac-[dR][Pen]NT[Trp(7-Me)]K(Ac)[Pen][AEF][2Nal][Ac6c(4,4-F2)]EN[Thp]-NH2; disulfide 2-7): 1.3 nM.
The result for `CC(=O)N[C@H](CCCNC(=N)N)C(=O)N[C@H]1CCSC[C@@H](C(=O)N[C@@H](Cc2ccc(OCCN)cc2)C(=O)N[C@@H](Cc2ccc3ccccc3c2)C(=O)NC2(C(=O)N[C@@H](CCC(N)=O)C(=O)N[C@@H](CC(N)=O)C(=O)N[C@@](C)(Cc3ccccc3)C(N)=O)CCOCC2)NC(=O)[C@H](CCC(N)=O)NC(=O)[C@H](Cc2c[nH]c3ccccc23)NC(=O)[C@H]([C@@H](C)O)NC(=O)[C@H](CCC(N)=O)NC1=O` [Compound 30, Ac-[(D)Arg]-[Abu]-Q-T-W-Q-[Cys]-Phe[4-(2-aminoethoxy)]-[2-Nal]-[THP]-Q-N-[a-MePhe]-NH2] reads 25 nM; that for `CCCC(=O)NCCCC[C@H](NC(=O)C1(NC(=O)[C@H](Cc2ccc3ccccc3c2)NC(=O)[C@H](Cc2ccc(OCCN)cc2)NC(=O)[C@H]2NC(=O)[C@H](CCC(N)=O)NC(=O)[C@H](Cc3c[nH]c4ccccc34)NC(=O)[C@H]([C@@H](C)O)NC(=O)[C@H](CCC(N)=O)NC(=O)[C@@H](NC(=O)[C@@H](CCCNC(=N)N)NC(C)=O)C(C)(C)SSC2(C)C)CCOCC1)C(=O)N[C@@H](CC(N)=O)C(=O)NC1(C(N)=O)CCOCC1` [Compound 52, Ac-[(D)Arg]-[Pen]-Q-T-W-Q-[Pen]-Phe[4-(2-aminoethoxy)]-[2-Nal]-[THP]-[Lys(COPr)]-N-[THP]-NH2], 16 nM; that for `CC(=O)NCCCC[C@@H]1NC(=O)[C@H](Cc2c[nH]c3ccccc23)NC(=O)[C@H]([C@@H](C)O)NC(=O)[C@H](CC(N)=O)NC(=O)[C@@H](NC(=O)[C@@H](CCCNC(=N)N)NC(C)=O)C(C)(C)SSC(C)(C)[C@@H](C(=O)N[C@@H](Cc2ccc(OCCN)cc2)C(=O)N[C@@H](Cc2ccc3ccccc3c2)C(=O)NC2(C(=O)N[C@@H](CCC(=O)O)C(=O)N[C@@H](CC(N)=O)C(=O)N[C@@](C)(Cc3ccccc3)C(N)=O)CCOCC2)NC1=O` [Compound 106, Ac-[(D)Arg]-[Pen]-N-T-W-[Lys(Ac)]-[Pen]-Phe[4-(2-aminoethoxy)]-[2-Nal]-[THP]-E-N-[a-MePhe]-NH2] (Ac-[dR][Pen]NTWK(Ac)[Pen][AEF][2Nal][Thp]EN[αMeF]-NH2; disulfide 2-7), 13 nM.
The result for `CC(=O)NCCCC[C@@H]1NC(=O)[C@H](Cc2c[nH]c3c(C)cccc23)NC(=O)[C@H]([C@@H](C)O)NC(=O)[C@H](CC(N)=O)NC(=O)[C@@H](NC(=O)[C@@H](CCCNC(=N)N)NC(C)=O)C(C)(C)SSC(C)(C)[C@@H](C(=O)N[C@@H](Cc2ccc(OCCN)cc2)C(=O)N[C@@H](Cc2ccc3ccccc3c2)C(=O)NC2(C(=O)N[C@@H](CCC(=O)O)C(=O)N[C@@H](CC(N)=O)C(=O)NC3(C(N)=O)CCOCC3)CCOCC2)NC1=O` [Compound 92, Ac-[(D)Arg]-[Pen]-N-T-[W(7-Me)]-[Lys(Ac)]-[Pen]-Phe[4-(2-aminoethoxy)]-[2-Nal]-[THP]-E-N-[THP]-NH2] (Ac-[dR][Pen]NT[Trp(7-Me)]K(Ac)[Pen][AEF][2Nal][Thp]EN[Thp]-NH2; disulfide 2-7) reads 3.3 nM.
`CCC(=O)N[C@H](CCCNC(=N)N)C(=O)N[C@@H]1C(=O)N[C@@H](CCC(N)=O)C(=O)N[C@@H]([C@@H](C)O)C(=O)N[C@@H](Cc2c[nH]c3ccccc23)C(=O)N[C@@H](CCC(N)=O)C(=O)N[C@H](C(=O)N[C@@H](Cc2ccc(OCCN)cc2)C(=O)N[C@@H](Cc2ccc3ccccc3c2)C(=O)NC2(C(=O)N[C@@H](CCC(=O)O)C(=O)N[C@@H](CC(N)=O)C(=O)N[C@@](C)(Cc3ccccc3)C(N)=O)CCOCC2)C(C)(C)SSC1(C)C` [Compound 3, [Propionic_acid]-[(D)Arg]-[Pen]-Q-T-W-Q-[Pen]-Phe[4-(2-aminoethoxy)]-[2-Nal]-[THP]-E-N-[a-MePhe]-NH2] (Propionyl-[dR][Pen]QTWQ[Pen][AEF][2Nal][Thp]EN[αMeF]-NH2; disulfide 2-7) gave an IC50 of 40 nM.
`CC(=O)N[C@H](CCCNC(=N)N)C(=O)N[C@H]1CCSC[C@@H](C(=O)N[C@@H](Cc2ccc(OCCN)cc2)C(=O)N[C@@H](Cc2ccc3ccccc3c2)C(=O)NC2(C(=O)N[C@@](C)(CCC(=O)O)C(=O)N[C@@H](CC(N)=O)C(=O)N[C@@H](Cc3ccccc3)C(=O)NC(C)(C)C(=O)N[C@@](C)(CCCCN)C(N)=O)CCOCC2)NC(=O)[C@H](CCC(N)=O)NC(=O)[C@H](Cc2c[nH]c3ccccc23)NC(=O)[C@H]([C@@H](C)O)NC(=O)[C@H](CCC(N)=O)NC1=O` [Compound 43, Ac-[(D)Arg]-[Abu]-Q-T-W-Q-[Cys]-Phe[4-(2-aminoethoxy)]-[2-Nal]-[THP]-[aMeGlu]-N-F-[Aib]-[a-MeLys]-NH2] (Ac-[dR][Abu(4-yl)]QTWQC[AEF][2Nal][Thp][αMeE]NF[Aib][αMeK]-NH2; thioether 2-7) had an IC50 of 8.2 nM.

What is called IC50 is the midpoint of a concentration-inhibition curve. Lower therefore signals greater potency.
